Molecules are shown by their SMILES.

For this assay, the target named is T1, mNeonGreen (Branchiostoma lanceolatum, UniProt A0A1S4NYF2, C173I/S175A/W191I).
T1 sequence (A0A1S4NYF2 25-260 C173I/S175A/W191I): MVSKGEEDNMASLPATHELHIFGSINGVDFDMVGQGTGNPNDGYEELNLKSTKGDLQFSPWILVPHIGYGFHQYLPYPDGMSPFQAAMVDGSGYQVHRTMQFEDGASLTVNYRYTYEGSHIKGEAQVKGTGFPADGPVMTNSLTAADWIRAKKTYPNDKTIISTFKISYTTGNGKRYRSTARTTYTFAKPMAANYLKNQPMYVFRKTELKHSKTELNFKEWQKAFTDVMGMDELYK
The assay can be described thus: fluorescence quenching titration, purified protein. In kind it is binding.

One may read the Kd as the free concentration of one partner at which half of the binding sites on the other are occupied at equilibrium, for simple one-to-one binding. A higher Kd goes with lower affinity. As to `O=S(=O)(O)O` [sulfate], the Kd amounted to 33 ± 3 mM.

For the origin of these results see paper PMC11499995 (Communications Biology, 2024).
